This passage reports IC50 results from BindingDB's records for doi:10.1016/j.ejmech.2018.01.013 (University of Rennes 1, 2018).

Broadly, the IC50 is the concentration at which inhibition is half-maximal. Higher therefore signals weaker potency.

This test in a line: Inhibition of human 20S constitutive proteasome beta-1 using Z-LLE-betaNA as substrate incubated for 15 mins measured for 45 mins by fluorescence assay.
As for `C[C@H](NC(=O)[C@@H](N)Cc1ccc(OCc2ccccc2)cc1)C(=O)N[C@@H](C[C@]1(O)C(=O)Nc2ccccc21)C(=O)NCc1ccccc1`, the midpoint of inhibition, the IC50, lay at 30 µM. This counts as double-digit micromolar. The molecule `C[C@H](NC(=O)[C@H](Cc1ccc(OCc2ccccc2)cc1)NC(=O)OC(C)(C)C)C(=O)N[C@@H](C[C@]1(O)C(=O)Nc2ccccc21)C(=O)NC(c1ccccc1)c1ccccc1` came in with an IC50 of 2.2 µM. In turn, `C[C@H](NC(=O)Cc1cccc(Oc2ccccc2)c1)C(=O)N[C@@H](C[C@]1(O)C(=O)Nc2ccccc21)C(=O)NCc1ccccc1` returned an IC50 of 40 µM. With `C[C@H](NC(=O)[C@H](Cc1ccc(OCc2ccccc2)cc1)NC(=O)OC(C)(C)C)C(=O)N[C@@H](C[C@]1(O)C(=O)Nc2ccccc21)C(=O)NCc1cccc2ccccc12` the figure was 2.14 µM; with `CC(O)[C@@H](NC(=O)c1ccc(OCc2ccccc2)cc1)C(=O)N[C@@H](C[C@]1(O)C(=O)Nc2ccccc21)C(=O)NCc1ccccc1` (stereo not given in full), 31.9 µM. Molecule `NCCCC[C@H](NC(=O)[C@@H](N)Cc1ccc(OCc2ccccc2)cc1)C(=O)N[C@@H](C[C@]1(O)C(=O)Nc2ccccc21)C(=O)NCc1ccccc1` had a 50% inhibitory concentration (IC50) of 13 µM. This IC50 is about 2.5-fold lower than that of the molecule before. To `C[C@H](NC(=O)[C@H](Cc1ccc(OCc2ccccc2)cc1)NC(=O)OC(C)(C)C)C(=O)N[C@@H](C[C@]1(O)C(=O)N(C)c2ccccc21)C(=O)NCc1ccccc1` belongs 11.4 µM.

Molecule `C[C@H](NC(=O)c1ccc(OCc2ccccc2)cc1)C(=O)N[C@@H](C[C@]1(O)C(=O)Nc2ccccc21)C(=O)NCc1ccccc1` yielded a half-maximal inhibitory concentration (IC50) of 35 µM. Regarding `C[C@H](NC(=O)[C@H](Cc1ccc(OCc2ccccc2)cc1)NC(=O)OC(C)(C)C)C(=O)N[C@@H](C[C@]1(O)C(=O)Nc2ccccc21)C(=O)NCC(C)(C)C`, the concentration for half-maximal inhibition (IC50) turned out to be 15.1 µM. To `C[C@@H](NC(=O)[C@H](Cc1ccc(OCc2ccccc2)cc1)NC(=O)OC(C)(C)C)C(=O)N[C@@H](C[C@]1(O)C(=O)Nc2ccccc21)C(=O)NCc1ccccc1` belongs 17.1 µM. With `CC(C)(C)OC(=O)N[C@@H](Cc1ccc(OCc2ccccc2)cc1)C(=O)N[C@@H](CC(N)=O)C(=O)N[C@@H](C[C@]1(O)C(=O)Nc2ccccc21)C(=O)NCc1ccccc1` the figure was 20.1 µM.

`C[C@H](NC(=O)[C@H](Cc1ccc(OCc2ccccc2)cc1)NC(=O)OC(C)(C)C)C(=O)N[C@@H](C[C@]1(O)C(=O)Nc2ccccc21)C(=O)NCc1ccc(-c2ccccc2)cc1` came in with a concentration for half-maximal inhibition (IC50) of 17.6 µM.

`C[C@H](NC(=O)[C@H](Cc1ccc(OCc2ccccc2)cc1)NC(=O)OC(C)(C)C)C(=O)N[C@@H](C[C@@]1(O)C(=O)N(C)c2ccccc21)C(=O)NCc1ccccc1` displayed an IC50 of 13.4 µM. The molecule `C[C@H](NC(=O)[C@H](Cc1ccc(OCc2ccccc2)cc1)NC(=O)OC(C)(C)C)C(=O)N[C@@H](C[C@]1(O)C(=O)Nc2ccccc21)C(=O)NCCc1ccccc1` yielded a 50% inhibitory concentration (IC50) of 4.9 µM. This IC50 lies about 2.7-fold lower than the previous one. To `C[C@H](NC(=O)[C@H](Cc1ccc(OCc2ccccc2)cc1)NC(=O)OC(C)(C)C)C(=O)N[C@@H](C[C@@]1(O)C(=O)Nc2ccccc21)C(=O)NCc1ccccc1` belongs 17.2 µM.
